Data: patent EP2545917B1, “NOVEL EP4 AGONIST” (Kaken Pharmaceutical Co., Ltd., priority 2010, dated 2011)

Assays:
[1] = tested on: blood pressure and heart rate; assay: Effect on blood pressure and heart rate in mice; format: in vivo, ICR mice; details: intravenous 0.01 mg/5 mL/kg, isoflurane anesthesia
Method: Male ICR mice (5 weeks old, Japan SLC) were purchased, acclimated for 6 days and used for the test. The animals were treated and measured under isoflurane inhalation anesthesia (anesthesia introduced at 2.5%, maintained at 1.8-2.1%), while body temperature was kept at 37°C with a Heat Controller (ATC-402, Unique Medical Co., Ltd.). A catheter for administration of test compounds was inserted into the left femoral vein, and another catheter was inserted into the right femoral artery and connected to a pressure transducer to record each parameter of hemodynamics.
Compound F, the carboxylate form of compound F and BPS were intravenously administered at a dose of 0.01 mg/5 mL/kg, and the effect on the mean blood pressure and heart rate was evaluated with computer software for the analysis of hemodynamics (Fluclet, Dainippon Sumitomo Pharma Co., Ltd.). To the control group was intravenously administered a solvent (1.2% ethanol solution) at 5 mL/kg in the same manner. The results are expressed as a ratio of change in each parameter before and after the drug administration. Three to 6 animals were used for each group, and the results were expressed as average ± standard deviation.

[2] = tested on: dextran sodium sulfate-induced colitis; assay: Prophylactic effect on dextran sodium sulfate-induced colitis in rats; format: in vivo; details: SD rats, 5.5 w/v% DSS, oral 1 mg/kg and 3 mg/kg once a day
Method: Prophylactic effect of compound F on colitis was also studied in rats. Male SD rats, 7 weeks old, body weight around 210 g - 240 g (Charles River) were purchased, acclimated for 1 week and used for the study. Except the normal group, the rats were allowed to freely drink a DSS (MP Biochemicals, M.W. 36,000-50,000, Lot No. 4556J) solution prepared to 5.5 w/v% for 8 days to induce colitis. Compound F at doses of 0.3, 1 and 3 mg/kg was orally administered once a day, daily, from one day before the start day of DSS drinking to one day before autopsy (day 7). To the control group was orally administered a solvent (1 vol% ethanol solution) at 5 mL/kg.
On day 8 from the start of DSS drinking, 1.25 w/v% Evans blue solution was administered at 0.2 mL/100 g from the tail vein. After 30 min, the rats were subjected to laparotomy under ether anesthesia and exsanguinated to death. Thereafter, the large intestine was dissected from just below the cecum to the anus, and the length was measured with a scale. […] The next day, the dry weight was measured, formamide (2 mL) was added, the dye was extracted at 50°C overnight, and the level thereof was measured at 620 nm. A standard curve was prepared using an Evans blue standard solution, and the amount (mg) of Evans blue in 1 g of the colonic tissue was calculated to estimate degree of colonic tissue injury. […]

[3] = tested on: dextran sodium sulfate-induced colitis; assay: Therapeutic effect on remission/relapse model of dextran sodium sulfate-induced colitis in mice; format: in vivo, BALB/c mice
From the text: Next, therapeutic effect of compound F on colitis was studied in a chronic model. Female BALB/c mice, 6 weeks old, body weight about 20 g (Japan SLC) were purchased, acclimated for 1 week and used for the study. The mice were divided into a colitis induction group and a normal group. The colitis induction group was allowed to freely drink a 2.6 w/v% DSS (MP Biochemicals, M.W. 36,000- 50,000, Lot No. 4556J) solution to induce colitis. On day 8 when the stool score (defined in Example 23) of the colitis induction group reached about 4.5, the mice were subdivided into a control group, a compound F 1 mg/kg administration group and a salazosulfapyridine (SIGMA, Lot No. 085K1930, hereinafter to be abbreviated as SASP) 100 mg/kg administration group. Then the mice were allowed to freely drink distilled water instead of DSS solution for 9 days (remission period). After the grouping, the stool score was evaluated every 3 - 4 days. When the score of the control group reached about 1, the mice were again allowed to drink the DSS solution to cause a relapse (relapse period). The periods of remission and relapse were taken as 1 cycle and the cycle was repeated 5 times. As for the 5th cycle, however, only the remission period was performed.
Compound F at a dose of 1 mg/kg and SASP at a dose of 100 mg/kg were orally administered once a day, daily, for 50 days from the initial remission period (day 8 from the start of 2.6 w/v% DSS drinking) to the fifth remission period (day 57 from the start of 2.6 w/v% DSS drinking). To the control group was orally administered a solvent (1 vol% ethanol solution) at 10 mL/kg. If a mouse had score 0 of both stool consistency score and occult blood score on the last day of each remission period, the mouse was regarded as "in remission". The remission ratio (%) was calculated as a ratio of mice in remission in each group. Eight to 10 mice were used for each group and the results are shown in average value.

[4] = mice, oral once a day, Compound F 1 mg/kg, SASP 100 mg/kg

Cc1cccc([C@@H](C)[C@H](O)/C=C/[C@@H]2[C@@H]3[C@H](C[C@H]2O)O/C(=C\CCCc2nnn[nH]2)C3(F)F)c1 [Compound F, 4-[(Z)-(1S,5R,6R,7R)-6-[(1E,3R,4R)-3-hydroxy-4-(m-tolyl)-1-pentenyl]-7-hydroxy-2-oxa-4,4-difluoro-bicyclo[3.3.0]octan-3-ylidene]-1-(tetrazol-5-yl)butane]
effect on heart rate [1]: little effect on the heart rate
maximum decrease ratio of mean blood pressure [1]: 16.2%
effect on stool score, colonic tissue injury and shortening of the large intestine [2]: a suppressive tendency or significant suppressive effect on these events
Remission Ratio Average ([3]; average of 5 remission periods, Compound F 1 mg/kg, SASP 100 mg/kg): 66.0%
remission ratio in any remission period ([3]; mice, oral 1 mg/kg once a day): not less than 60%
effect on stool score in remission and relapse periods ([3]; mice, oral once a day for 50 days, compound F 1 mg/kg, SASP 100 mg/kg): decreased the stool score early in the remission period, and suppressed an increase in the score in the relapse period
Remission Ratio Cycle 1 [3, 4]: 60.0%
Remission Ratio Cycle 2 [3, 4]: 80.0%
Remission Ratio Cycle 3 [3, 4]: 70.0%
Remission Ratio Cycle 4 [3, 4]: 60.0%
Remission Ratio Cycle 5 [3, 4]: 60.0%
